In patent US8614206B2 (Genentech, Inc., priority 2011, dated 2013):
Like-named read-outs stand apart in the source and are kept apart here.

Assays:
PIM1 = PIM1 (Homo sapiens (Human), UniProt P11309); assay: Pim kinase inhibition, PIM1 LC3K (Example 901); assay type: biochemical
From the text: Determination of the Pim kinase activity of a Formula I compound is possible by a number of direct and indirect detection methods.

BaF3 parental cells = assay: In vitro cell proliferation, BaF3 parental line + IL3 (CellTiter-Glo); assay type: cell-based, murine
[1] = test system: MM1.S (multiple myeloma) cells; assay: In vitro cell proliferation, MM1.S multiple myeloma cells (CellTiter-Glo, ATP); assay type: cell-based; settings: read-out: Prolif MM1S ATP (EC50)
Summary of the method: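 BaF3 parental cells (medium with 2 ng/mL mIL-3) seeded at 2 k/well and MM1.S at 10 k/well, then exposed to test compound at 37° C, 5% CO2: BaF3 overnight, MM1.S for 72 hours. Viability read by CellTiter-Glo; IC50/EC50 values calculated.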

BaF3 PIM1 cells [2] = settings: read-out: Prolif BaF3_PIM1 (IC50), incubated overnight
Method: (§1) BaF3 parental line was obtained from the DSMZ repository. BaF3 lines transfected with PIM 1 or PIM2 were generated. Mouse IL-3 was purchased from R&D Systems. G418 was purchased from Clontech. Media for BaF3 parental line contained RPMI, 10% FBS, 2 mM L-Glutamine, 2 ng/mL mIL-3. Media for BaF3 PIM1 & 2 lines contained RPMI, 10% FBS, 2 mM L-Glutamine, 250 μg/mL.
(§2) BaF3, a murine interleukin-3 dependent pro-B cell line, parental cells, BaF3 PIM1 cells, BaF3 PIM2 cells, and MM1.S (multiple myeloma) cells were seeded at 2 k/well, 5 k/well, 5 k/well, and 10 k/well respectively, in a 384-well plate, at 45 μL/well. Test compound was added at 5 μL/well. BaF3 cells (parental and transfected) were incubated overnight, while MM1.S cells were incubated for 72 hours at 37° C., 5% CO2. CELL TITER GLO® Reagent (Promega) was added at 50 μL/well, the plates were incubated for 30 minutes, and their luminescence read on an HT Analyst. IC50/EC50 values for the test compound were calculated.

BaF3 PIM1 cells [3] = assay: cells; settings: Mus musculus
Method: as §1, §2

[4] = Mus musculus, BaF3, BaF3 parental cells with IL-3, incubated overnight, read-out: Prolif BaF3 + IL3 (IC50)
[5] = BaF3, read-out: Prolif BaF3_PIM1 (IC50), BaF3 PIM1 cells, incubated overnight
[6] = Mus musculus, BaF3, BaF3 parental cells with IL-3, incubated overnight, read-out: Prolif BaF3 IL3 (IC50)
[7] = BaF3, read-out: Prolif BaF3 PIM1 (IC50), BaF3 PIM1 cells, incubated overnight

PIM1, sequence (P11309 whole entry): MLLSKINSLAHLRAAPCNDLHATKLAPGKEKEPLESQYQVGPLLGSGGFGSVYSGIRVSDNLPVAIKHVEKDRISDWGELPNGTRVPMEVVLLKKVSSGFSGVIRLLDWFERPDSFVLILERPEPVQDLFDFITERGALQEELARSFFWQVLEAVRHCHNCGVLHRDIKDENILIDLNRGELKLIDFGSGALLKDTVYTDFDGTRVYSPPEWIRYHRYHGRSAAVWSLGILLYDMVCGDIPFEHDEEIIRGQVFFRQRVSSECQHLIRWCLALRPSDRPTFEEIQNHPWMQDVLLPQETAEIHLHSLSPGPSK

| Compound | Ki (PIM1) [nM] | IC50 (BaF3 parental cells; BaF3 parental cells with IL-3, incubated overnight, read-out: Prolif BaF3 + IL3 (IC50)) [nM] | EC50 ([1]; 72 hours) [nM] | IC50 (BaF3 PIM1 cells [2]) [nM] | IC50 (BaF3 parental cells; [4]) [nM] | EC50 ([1]; Homo sapiens, MM1.S, 72 h) [nM] | IC50 (BaF3 PIM1 cells [3]; [5]) [nM] | IC50 (BaF3 parental cells; [6]) [nM] | IC50 (BaF3 PIM1 cells [3]; [7]) [nM] |
| --- | --- | --- | --- | --- | --- | --- | --- | --- | --- |
| CCn1ncc(NC(=O)c2nc(-c3c(F)cccc3F)sc2N)c1N1CCC(N)C(OC)CC1 (single isomer, unassigned) [Example 407, 5-amino-N-[5-(4-amino-5-methoxy-azepan-1-yl)-1-ethyl-pyrazol-4-yl]-2-(2,6-difluorophenyl)thiazole-4-carboxamide] | 0.204 | 9800 | 3500 | 795 | – | – | – | – | – |
| Cn1ncc(NC(=O)c2nc(-c3c(F)cccc3F)sc2N)c1N1CCC(N)C2(CCO2)CC1 (stereo not drawn) [Example 510, 5-amino-N-[5-(5-amino-1-oxa-8-azaspiro[3.6]decan-8-yl)-1-methyl-pyrazol-4-yl]-2-(2,6-difluorophenyl)thiazole-4-carboxamide] | 0.095 | – | – | – | 22000 | 5600 | 623 | – | – |
| Nc1sc(-c2cc(F)ccc2F)nc1C(=O)Nc1cnn(CC(F)F)c1N1CCC[C@@H](N)CC1 [Example 161, (R)-5-amino-N-(5-(4-aminoazepan-1-yl)-1-(2,2-difluoroethyl)-1H-pyrazol-4-yl)-2-(2,5-difluorophenyl)thiazole-4-carboxamide] | 0.12 | – | – | – | – | 160 | – | 6000 | 404 |
| Cc1c(-c2nc(C(=O)Nc3cnn(C)c3N3CC[C@@H](N)CC(F)(F)C3)c(N)s2)cnn1C [Example 463, 5-amino-N-[5-[(5R)-5-amino-3,3-difluoro-azepan-1-yl]-1-methyl-pyrazol-4-yl]-2-(1,5-dimethylpyrazol-4-yl)thiazole-4-carboxamide] | 0.018 | – | – | – | > 25000 | 108 | 58.4 | – | – |
| CN[C@H]1CCCN(c2c(NC(=O)c3nc(-c4cc(C)ccc4F)sc3N)cnn2CC(F)F)CC1 [Example 119, (S)-5-Amino-N-(1-(2,2-difluoroethyl)-5-(4-(methylamino)azepan-1-yl)-1H-pyrazol-4-yl)-2-(2-fluoro-5-methylphenyl)thiazole-4-carboxamide] | 0.044 | – | – | – | – | 3000 | – | 5600 | 212 |
| COC1CCN(c2c(NC(=O)c3nc(-c4cc(C)ccc4F)sc3N)cnn2C)CCC1N (stereo not drawn) [Example 325, 5-amino-N-[5-(4-amino-5-methoxy-azepan-1-yl)-1-methyl-pyrazol-4-yl]-2-(2-fluoro-5-methyl-phenyl)thiazole-4-carboxamide] | 0.153 | – | – | – | 16600 | 752 | 191 | – | – |
| Cn1ncc(NC(=O)c2nc(-c3cc(F)ccc3F)sc2N)c1N1CCNCC(F)(F)C1 [Example 106, 5-Amino-N-(5-(6,6-difluoro-1,4-diazepan-1-yl)-1-methyl-1H-pyrazol-4-yl)-2-(2,5-difluorophenyl)thiazole-4-carboxamide] | 0.03 | – | – | – | – | 1900 | – | 15600 | 566 |
| CCn1ncc(NC(=O)c2nc(-c3c(F)cccc3F)sc2N)c1N1CCC(N)C(OC)CC1 (single isomer, unassigned) [Example 406, 5-amino-N-[5-(4-amino-5-methoxy-azepan-1-yl)-1-ethyl-pyrazol-4-yl]-2-(2,6-difluorophenyl)thiazole-4-carboxamide] | 0.133 | – | 404 | 284 | 12000 | – | – | – | – |
| Nc1sc(-c2c(F)cccc2F)nc1C(=O)Nc1cnn(C2CC2)c1N1CC[C@H](N)CC(F)(F)C1 [Example 344, 5-amino-N-[5-[(5S)-5-amino-3,3-difluoro-azepan-1-yl]-1-cyclopropyl-pyrazol-4-yl]-2-(2,6-difluorophenyl)thiazole-4-carboxamide] | 0.01 | – | – | – | 5200 | 1200 | 83.6 | – | – |
